{"source": "patent US11760785B2", "about": "“Glucose transporter inhibitor-modified insulin for glucose-responsive insulin delivery” (NORTH CAROLINA STATE UNIVERSITY, priority 2017, dated 2023)", "key": {"[1]": {"tested_on": "glucose transporter (GLUT) on erythrocyte ghosts", "experiment": "binding to erythrocyte ghosts as the model of glucose transporter", "text": "In order to conjugate GLUT inhibitors to […], the GLUT inhibitors were first functionalized with an amino group to facilitate their conjugation to insulin (FIGS. 2 and 3). […] For inhibitor 2 (In2), an amino group was introduced through Michael addition reaction while maintaining the main structures unchanged. In order to conjugate insulin to forskolin and inhibitor 2, insulin was firstly reacted with Traut's reagent to introduce a thiol group and used directly for conjugating inhibitors, which was also beforehand reacted with SMCC crosslinker."}, "[2]": {"tested_on": "type 1 diabetic mouse model induced by STZ", "experiment": "in vivo therapeutic efficacy, blood glucose levels in type 1 diabetic mice", "settings": "STZ type 1 diabetic mice; 300 IU/kg insulin conjugate, 150 IU/kg free insulin", "text": "PBS was used as a control. The dose was set to 300 IU/kg for insulin conjugate and 150 IU/kg for free insulin to avoid severe hypoglycemia. Error bars represent the S.D. of three independent experiments (n=3).\n(§1) PBS was used as a control."}, "[3]": {"assay_type": "physicochemical", "text": "Herein, a new strategy utilizing the in situ living cells as the carrier for insulin was developed. […] In addition, the introduction of water-insoluble inhibitors onto insulin can greatly reduce its water solubility at pH 7.4. After subcutaneously injected, insulin conjugate formed a depot beneath the skin, which can slowly release insulin conjugate into the blood. Then, insulin conjugate reaches the GLUT on living cells, including adipose cells, muscle cells and blood cells, during blood circulation and consequently establishing an insulin pool. Of note, the GLUT pool on living cells can also buffer the high level of insulin in blood in the initial period post-injection and works as the reservoir of insulin to smooth the level of blood insulin. The adsorption of insulin-conjugate to cell membranes is in a dynamic balance with insulin conjugate in interstitial fluid and blood under a normoglycemic state. The insulin conjugate binding on living cell membranes can be released in a glucose-triggered manner under a hyperglycemic state because of the competitive binding from elevated glucose level.\nIn order to conjugate GLUT inhibitors to […], the GLUT inhibitors were first functionalized with an amino group to facilitate their conjugation to insulin (FIGS. 2 and 3). For forskolin, the introduction of the amino group and alkyl chains can enhance its binding affinity to GLUT. […]"}, "[4]": {"tested_on": "diabetic mice", "experiment": "multiple intraperitoneal glucose tolerance test", "assay_type": "in vivo, mouse", "settings": "subcutaneous injection, 400 IU/kg insulin conjugate", "text": "Insulin-F was subcutaneously injected. The dose was set to 400 IU/kg for insulin conjugate. Error bars represent the S.D. of three independent experiments (n=5).\nas §1"}, "[5]": {"tested_on": "diabetic mice", "settings": "mouse, in vivo, sc", "method": "The in vivo therapeutic efficacy of insulin conjugates was evaluated in type 1 diabetic mouse model induced by STZ. The diabetic mice were assigned to four groups treated with insulin conjugates or native insulin. PBS was used as a control."}}}
{"molecule": "C=C1[C@@H](C)[C@H]2[C@H](Cc3ccccc3)NC(=O)[C@]23OC(=O)/C=C/[C@H](O)CCC[C@@H](C)C/C=C/[C@H]3[C@@H]1O", "note": "[cytochalasin B, reference compound]", "values": [{"measurement": "inhibition of insulin-F binding on erythrocyte ghosts", "setting": "[1]; competitor against insulin-F binding, indicates the binding is GLUT specific", "value": "could be inhibited"}]}
{"molecule": "insulin [free insulin]", "values": [{"measurement": "time blood glucose level maintained within the normal range (<200 mg/dL)", "setting": "[2]", "value": "three"}]}
{"molecule": "insulin-forskolin: insulin conjugated via Traut's reagent thiol and SMCC crosslinker to amino-functionalized forskolin, a GLUT inhibitor", "values": [{"measurement": "solubility at pH 7.4", "setting": "[3]", "value": "insoluble"}, {"measurement": "binding to erythrocyte ghost membrane", "setting": "[1]; erythrocyte ghosts as the model of glucose transporter", "value": "able to bind to membrane"}, {"measurement": "blood-glucose-regulating ability in multiple glucose tolerance test", "setting": "[4]", "value": "long-lasting blood-glucose-regulating ability"}, {"measurement": "long-lasting behavior by living imaging", "setting": "[5]", "value": "long-lasting behavior of insulin-F was further confirmed"}]}
